Measured values as given in patent publication US10251871B2, “Compositions and methods for treatment of edema” (Memorial Sloan Kettering Cancer Center, priority 2015, dated 2019).

What was measured:
[1] = system: popliteal lymph node dissection (PLND) mouse model; experiment: Popliteal lymph node dissection (PLND) hind limb model of lymphatic injury; conditions: 4 weeks after PLND
From the text: To enable analysis of the lymphatic collecting vessel pumping capacity we utilized a previously described mouse popliteal lymphadenectomy model. […] Briefly, the hind limb collecting vessels and popliteal lymph nodes were identified and the lymph nodes were excised with the popliteal fat pad. Beginning 2 weeks after surgery, animals were randomized to treatment with either 0.1% topical tacrolimus or vehicle control (petroleum jelly) twice daily for 2 weeks.
Near infrared imaging (NIR) was performed using a modification of previously published results. […] Briefly, 15 μl (0.15 mg mL^−1) indocyanine green (ICG, Sigma-Aldrich, Saint Louis, Mo.) was injected intradermally in the web space of the dorsal hind limb and visualized using an EVOS EMCCD camera (Life Technologies, Carlsbad, Calif.) with a LED light source (CoolLED, Andover, United Kingdom). Static/video images were obtained using a Zeiss V12 Stereolumar microscope (Caliper Life Sciences, Hopkinton, Mass.) and lymphatic pumping function was analyzed using Fiji software (NIH, Bethesda, Md.) by identifying a region-of-interest over the dominant collecting vessel of the leg and subtracting the background fluorescent intensity plotted over time.
Immunohistochemical staining was performed using our published methods. […] Briefly, tissues were fixed in 4% paraformaldehyde at 4° C., decalcified in 5% sodium EDTA (Santa Cruz Biotechnology, Dallas, Tex.), embedded in paraffin, and sectioned at 5 micrometers. Cut sections were rehydrated and heat-mediated antigen unmasking was performed using 90° C. sodium citrate (Sigma-Aldrich). Non-specific binding was blocked with 2% BSA/20% animal serum. Tissues were incubated overnight with primary antibody at 4° C. Primary antibodies used for immunohistochemical stains included goat anti-mouse LYVE-1, rat anti-mouse CD45, rabbit anti-mouse CD4, and rat anti-mouse F4/80 (all from R&D, Minneapolis, Minn.), rabbit anti-mouse CD3 (from Dako, Carpinteria, Calif.), Cy3-conjugated mouse anti-αSMA (from Sigma-Aldrich), rabbit anti-human IFN-γ, rabbit anti-mouse TGF-β1, rabbit anti-mouse p-SMAD3, rabbit anti-mouse collagen I, rabbit-anti-mouse iNOS, and hamster-anti-mouse podoplanin, rabbit anti-mouse HMGB-1 and HSP-70 (all from ABCAM, Cambridge, Mass.).
Immunofluorescence staining was performed using AlexaFluor fluorophore-conjugated secondary antibodies (Life Technologies, Norwalk, Conn.). Images were scanned using Mirax imaging software (Carl Zeiss).

[2] = system: mouse tail model of lymphedema; experiment: Mouse tail model of lymphedema (tail volume, histology, immunostaining, lymphoscintigraphy, NIR imaging, PCR, ELISA); type: in vivo, C57BL/6J mice
[3] = Tacrolimus blood level by mass spectrometry; type: in vivo, mice
Protocol: Blood levels of tacrolimus were measured using mass spectrometry in a modification of a previously reported method. Donaldson et al., Meth. Mol. Biol. 603:479-487 (2010). Briefly, whole blood was collected in sodium EDTA-coated tubes (Terumo, Shibuya, Japan) and then analyzed using a Thermo Scientific Aria TLX-2 turbulent flow chromatograph (TFC) coupled to a TSQ Quantum Ultra triple quadrupole mass spectrometer (Thermo Scientific, Franklin, Mass.). The TurboFlow column used was a Cyclone P-50×0.5 mm while the analytical column was a Hypersil Gold C-18 column, 3×50 mm. To whole blood (50 μL) was added 200 μL of 0.2 mM ZnSO4 containing ascomycin as an internal standard. Following a 30 minute incubation and centrifugation, 50 μL of the supernatant was injected into the TFC system. The analytes were eluted through the column (0.75 mL min^−1) with a gradient of water and methanol solutions containing 10 mM ammonium formate and 0.1% formic acid. The analytical run time was 4.5 minutes. The between-day imprecision of the assay was determined at three concentrations over a period of 10 days. At concentrations of 3.3, 12.6 and 31.9 ng mL^−1 the coefficients of variation were of 9.8, 7.0 and 7.8%, respectively. The assay has a linear range from 0 to 40 ng mL^−1.

[4] = system: corneal lymphatic and blood vessels; experiment: Corneal lymphangiogenesis assay (suture placement); type: in vivo, mice; conditions: systemic tacrolimus 4 mg kg^−1 IP daily for 2 weeks after suture placement, vs vehicle
From the text: To determine the lymphangiogenic effects of tacrolimus in other inflammatory and wound models in which drainage of lymphatic fluid is not obstructed surgically, we next used two other models of inflammatory lymphangiogenesis. The cornea is a useful tissue for studying lymphangiogenesis because it is normally devoid of both blood and lymphatic vessels but develops both in the setting of inflammation. Cursiefen et al., J. Clin. Invest. 113:1040-1050 (2004). […] A corneal lymphangiogenesis assay was performed as previously reported. Cursiefen et al., Cornea 25:443-447 (2006). Briefly, 10-0 nylon sutures (Ethicon, Cincinnati, Ohio) were placed in the cornea at […]. Beginning immediately after suture placement, animals were treated with systemic tacrolimus or vehicle control daily for two weeks, followed by analysis using confocal microscopy (Leica Microsystems, Weitziar, Germany). […] Cutaneous lymphangiogenesis was assessed using an ear punch wound model as previously reported. […] Tile-scan images were obtained using a confocal microscope (Leica Microsystems, Weitziar, Germany) and skin within 400 μm of the wound edge was analyzed using Metamorph software (Molecular Devices, Sunnyvale, Calif.). Standardized (200 μm×200 μm) fields were analyzed for the number of branch points present per unit area by two blinded reviewers.

[5] = reference range; cited from earlier work
[6] = topical 0.1% tacrolimus twice daily for 2 weeks from 2 weeks after PLND, vs vehicle control
[7] = topical 0.1% tacrolimus, vs control
[8] = topical 0.1% tacrolimus, vs vehicle treated controls
[9] = topical 0.1% tacrolimus twice daily, early treatment (from 2 weeks after surgery for 4 weeks), vs vehicle control
[10] = topical 0.1% tacrolimus twice daily, late treatment (from 6 weeks after surgery for 3 weeks), vs vehicle control
[11] = topical 0.1% tacrolimus, early and late treatment, vs control
[12] = topical 0.1% tacrolimus, early treatment, qPCR 6 weeks after injury, vs control
[13] = topical 0.1% tacrolimus, early treatment, vs control
[14] = topical 0.1% tacrolimus, late treatment, vs control

Q: For `C=CC[C@@H]1/C=C(\C)C[C@H](C)C[C@H](OC)[C@H]2O[C@@](O)(C(=O)C(=O)N3CCCC[C@H]3C(=O)O[C@H](/C(C)=C/[C@@H]3CC[C@@H](O)[C@H](OC)C3)[C@H](C)[C@@H](O)CC1=O)[C@H](C)C[C@@H]2OC` [tacrolimus], which “increase in collecting lymphatic packet frequency” value [1, 6] is on record?
A: The value was over 2 fold.

Q: And the “lymphatic leakiness and dermal back flow of ICG” value [1, 6]?
A: Its value is “markedly decreased”.

Q: What about the “collateral lymphatics draining towards the inguinal lymph node” value ([1]; topical 0.1% tacrolimus, NIR imaging and IF staining, vs control) of the same molecule?
A: Its value is “significantly more”.

Q: And the “luminal area of hind limb collectors” value [1, 7]?
A: Its value is “no differences”.

Q: What about the “number of alpha smooth muscles surrounding hind limb collecting lymphatics” value [1, 7] of the same molecule?
A: The value was “no differences”.

Q: And the “reduction in perilymphatic CD4+ cells” value [1, 8]?
A: Its value is 56%.

Q: And the “reduction in perilymphatic CD45+ cells” value [1, 8]?
A: The value was 39%.

Q: And the “reduction in perilymphatic F4/80+ cells” value [1, 8]?
A: Its value is 36%.

Q: What about the “reduction in the number of perilymphatic iNOS-expressing cells” value [1, 8] of the same molecule?
A: The value was 42%.

Q: What about the “decrease in soft tissue thickness” value [2, 9] of the same molecule?
A: Its value is about 50%.

Q: And the “decrease in tail volume” value [2, 9]?
A: The value was 95%.

Q: And the soft tissue thickness [2, 10]?
A: The soft tissue thickness was “highly effective in decreasing”.

Q: And the tail volume [2, 10]?
A: The tail volume was “highly effective in decreasing”.

Q: What about the “Scar index (picrosirius red, ratio of collagen I/III)” value [2, 11] of the same molecule?
A: The value was “markedly decreased”.

Q: And the “cellular expression of phosphorylated SMAD3 (pSMAD-3)” value [2, 11]?
A: The value was “markedly decreased”.

Q: And the “dermal and subcutaneous type I collagen deposition” value [2, 11]?
A: The value was “markedly decreased”.

Q: And the “expression of TGF-β1 (immunofluorescence)” value [2, 11]?
A: The value was “markedly decreased”.

Q: And the “NIR (ICG) imaging: transport across the tail wound” value ([2]; topical 0.1% tacrolimus, early treatment, 6 weeks after lymphatic ligation)?
A: Its value is “rapid transport of interstitial fluid proximally across the tail wound”.

Q: What about the “IFN-γ mRNA expression in tail tissue” value [2, 12] of the same molecule?
A: Its value is “significant decrease”.

Q: What about the “TGF-β1 mRNA expression in tail tissue” value [2, 12] of the same molecule?
A: Its value is “significant decrease”.

Q: And the “VEGF-C mRNA expression in tail tissue” value [2, 12]?
A: Its value is “no differences”.

Q: What about the “increase in decay adjusted 99mTc uptake of the sacral lymph nodes” value [2, 13] of the same molecule?
A: Its value is “more than 6 fold”.

Q: What about the “increase in newly formed lymphatic vessels (LYVE-1) bridging the zone of lymphatic injury” value [2, 13] of the same molecule?
A: The value was 189%.

Q: And the “reduction of CD45+ cells (leukocytes) infiltrating dermis and subcutaneous fat” value [2, 13]?
A: Its value is 56%.

Q: What about the “reduction of IFN-γ-producing cells” value [2, 13] of the same molecule?
A: Its value is 54%.

Q: What about the “reduction of infiltrating CD3+ cells” value [2, 13] of the same molecule?
A: Its value is 53%.

Q: And the “reduction of infiltrating CD4+ cells” value [2, 13]?
A: Its value is 78%.

Q: What about the “reduction of soft tissue infiltration of macrophages (F4/80+ cells)” value [2, 13] of the same molecule?
A: Its value is 86%.

Q: What about the “increase in newly formed lymphatic vessels (LYVE-1) bridging the zone of lymphatic injury” value [2, 14] of the same molecule?
A: Its value is 106%.

Q: And the “reduction of CD45+ cells (leukocytes) infiltrating dermis and subcutaneous fat” value [2, 14]?
A: Its value is 49%.

Q: And the “reduction of IFN-γ-producing cells” value [2, 14]?
A: The value was 57%.

Q: And the “reduction of infiltrating CD3+ cells” value [2, 14]?
A: The value was 49%.

Q: What about the “reduction of infiltrating CD4+ cells” value [2, 14] of the same molecule?
A: The value was 71%.

Q: And the “reduction of soft tissue infiltration of macrophages (F4/80+ cells)” value [2, 14]?
A: The value was 73%.

Q: What about the “increase in 99mTc nodal uptake” value ([2]; topical 0.1% tacrolimus, late treatment, vs control, did not reach statistical significance) of the same molecule?
A: The value was 2 fold.

Q: And the “whole blood tacrolimus levels” value ([3]; systemic tacrolimus 4 mg kg^−1 IP daily)?
A: The value was “immunosuppressive concentrations”.

Q: And the “whole blood tacrolimus level (systemic absorption), mean value” ([3]; topical tacrolimus)?
A: The value was 1.06 ng/mL.

Q: What about the “increase in proliferation of corneal lymphatic vessels (LYVE-1+)” value [4] of the same molecule?
A: Its value is 48%.

Q: What about the “known therapeutic immunosuppressive levels achieved with systemic administration” value [5] of the same molecule?
A: Its value is 5 to 15 ng/mL.
